Results from patent US20250382344A1, “Soluble GLP1/GIP/NPY2 Receptor Triple Agonists” (Boehringer Ingelheim International GmH, priority 2024, published 2025).
Read-outs that look alike come from different tables or passages of the source.

How the values were obtained:
[1] = Solubility in 0.1 M phosphate buffer at pH 7; type: physicochemical; conditions: 0.1 M phosphate buffer at pH 7, 10 mg/mL final peptide concentration, shaking 2 hours at room temperature, peptides as TFA-salts; measured sample pH 6.5-7.0
hGIPR = target: T1, hGIPR (Homo sapiens, UniProt P48546); assay: hGIPR CreLuc assay in 0.5% and 100% plasma (CHO CRE-luciferase reporter cells); type: cell-based
T1 construct: expressed in transfected cells; host or cells: CHO CRE-luciferase reporter cells
T1 sequence (P48546 22-466): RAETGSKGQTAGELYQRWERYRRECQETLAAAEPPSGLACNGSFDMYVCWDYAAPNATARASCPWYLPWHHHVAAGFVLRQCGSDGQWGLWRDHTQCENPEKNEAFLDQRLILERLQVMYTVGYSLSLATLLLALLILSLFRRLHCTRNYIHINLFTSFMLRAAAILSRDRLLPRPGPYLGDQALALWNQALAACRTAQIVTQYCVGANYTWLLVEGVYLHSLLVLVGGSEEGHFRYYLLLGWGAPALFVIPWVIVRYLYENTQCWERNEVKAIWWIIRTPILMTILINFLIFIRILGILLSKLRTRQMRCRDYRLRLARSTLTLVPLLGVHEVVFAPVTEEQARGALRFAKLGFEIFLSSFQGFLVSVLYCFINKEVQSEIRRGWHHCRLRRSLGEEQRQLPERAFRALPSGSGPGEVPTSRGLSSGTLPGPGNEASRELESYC

[2] = 0.5% human plasma, read-out: hGIPR 0.5% hP

CC[C@H](C)[C@H](NC(=O)[C@H](CC(C)C)NC(=O)[C@H](Cc1c[nH]cn1)NC(=O)[C@H](CCCNC(=N)N)NC(=O)[C@@H](NC(=O)[C@H](Cc1ccccc1)NC(=O)[C@H](CO)NC(=O)C(C)(C)NC(=O)[C@H](CCC(N)=O)NC(=O)[C@H](C)NC(=O)[C@H](CCC(N)=O)NC(=O)[C@H](CCCCN)NC(=O)[C@H](CCC(=O)O)NC(=O)[C@H](CC(C)C)NC(=O)C(C)(C)NC(=O)[C@@H](NC(=O)[C@H](CO)NC(=O)[C@H](Cc1ccc(O)cc1)NC(=O)[C@H](CC(=O)O)NC(=O)[C@H](CO)NC(=O)[C@@H](NC(=O)[C@H](Cc1ccccc1)NC(=O)[C@@H](NC(=O)CNC(=O)[C@H](CCC(=O)O)NC(=O)C(C)(C)NC(=O)[C@@H](N)Cc1ccc(O)cc1)[C@@H](C)O)[C@@H](C)O)[C@@H](C)CC)C(C)C)C(=O)N[C@@H](CC(N)=O)C(=O)N[C@@H](CCCCNC(=O)[C@@H](N)CCCCNC(=O)CC[C@H](NC(=O)CC[C@H](NC(=O)CC[C@H](NC(=O)CC[C@H](NC(=O)CC[C@H](NC(=O)CC[C@H](NC(=O)CCCCCCCCCCCCCCCCC(=O)O)C(=O)O)C(=O)O)C(=O)O)C(=O)O)C(=O)O)C(=O)O)C(=O)NC(C)(C)C(=O)N[C@H](C(=O)N[C@@H](CCCNC(=N)N)C(=O)N[C@@H](CCC(N)=O)C(=O)N[C@@H](CCCNC(=N)N)C(=O)N[C@@H](Cc1ccc(O)cc1)C(N)=O)[C@@H](C)O [Compound 144, Y-Aib-E-G-T-F-T-S-D-Y-S-I-Aib-L-E-K-Q-A-Q-Aib-S-F-V-R-H-L-I-N-K(1,3)-Aib-T-R-Q-R-Y-NH2.C18DA-gGlu-gGlu-gGlu-gGlu-gGlu-gGlu-eLys(1,2)]
solubility at 2 h [1]: 4300 µg/mL
EC50 (hGIPR; [2]): 0.4 nM

CC[C@H](C)[C@H](NC(=O)[C@H](CC(C)C)NC(=O)[C@H](Cc1c[nH]cn1)NC(=O)[C@H](CCCNC(=N)N)NC(=O)[C@@H](NC(=O)[C@H](Cc1ccccc1)NC(=O)[C@H](C)NC(=O)C(C)(C)NC(=O)[C@H](CCC(N)=O)NC(=O)[C@H](C)NC(=O)[C@H](CCC(N)=O)NC(=O)[C@H](CCCCN)NC(=O)[C@H](CCC(=O)O)NC(=O)[C@H](CC(C)C)NC(=O)C(C)(C)NC(=O)[C@@H](NC(=O)[C@H](CO)NC(=O)[C@H](CC(C)C)NC(=O)[C@H](CC(=O)O)NC(=O)[C@H](CO)NC(=O)[C@@H](NC(=O)[C@H](Cc1ccccc1)NC(=O)[C@@H](NC(=O)CNC(=O)[C@H](CCC(=O)O)NC(=O)C(C)(C)NC(=O)[C@@H](N)Cc1ccc(O)cc1)[C@@H](C)O)[C@@H](C)O)[C@@H](C)CC)C(C)C)C(=O)N[C@@H](CC(N)=O)C(=O)N[C@@H](CCCCNC(=O)CCCCCNC(=O)CCCCCNC(=O)CC[C@H](NC(=O)CC[C@H](NC(=O)CC[C@H](NC(=O)CC[C@H](NC(=O)CC[C@H](NC(=O)CCCCCCCCCCCCCCCCCCC(=O)O)C(=O)O)C(=O)O)C(=O)O)C(=O)O)C(=O)O)C(=O)NC(C)(C)C(=O)N[C@H](C(=O)N[C@@H](CCCNC(=N)N)C(=O)N[C@@H](CCC(N)=O)C(=O)N[C@@H](CCCNC(=N)N)C(=O)N[C@@H](Cc1ccc(O)cc1)C(N)=O)[C@@H](C)O [Compound 1, Y-Aib-E-G-T-F-T-S-D-L-S-I-Aib-L-E-K-Q-A-Q-Aib-A-F-V-R-H-L-I-N-K(1,3)-Aib-T-R-Q-R-Y-NH2.C20DA-gGlu-gGlu-gGlu-gGlu-gGlu-AHX-AHX(1,2)]
solubility at 2 h [1]: 9800 µg/mL
EC50 (hGIPR; hGIPR 0.5% hP (nM), 0.5% human plasma): 0.2 nM
EC50 (hGIPR; hGIPR 100% hP (nM), 100% human plasma): 10.3 nM

CC[C@H](C)[C@H](NC(=O)[C@H](CC(C)C)NC(=O)[C@H](Cc1c[nH]cn1)NC(=O)[C@H](CCCNC(=N)N)NC(=O)[C@@H](NC(=O)[C@H](Cc1ccccc1)NC(=O)[C@H](C)NC(=O)C(C)(C)NC(=O)[C@H](Cc1ccc(O)cc1)NC(=O)[C@H](C)NC(=O)[C@H](CCC(N)=O)NC(=O)[C@H](CCCCN)NC(=O)[C@H](CCC(=O)O)NC(=O)[C@H](CC(C)C)NC(=O)C(C)(C)NC(=O)[C@@H](NC(=O)[C@H](CO)NC(=O)[C@H](Cc1ccc(O)cc1)NC(=O)[C@H](CC(=O)O)NC(=O)[C@H](CO)NC(=O)[C@@H](NC(=O)[C@H](Cc1ccccc1)NC(=O)[C@@H](NC(=O)CNC(=O)[C@H](CCC(=O)O)NC(=O)C(C)(C)NC(=O)[C@@H](N)Cc1ccc(O)cc1)[C@@H](C)O)[C@@H](C)O)[C@@H](C)CC)C(C)C)C(=O)N[C@@H](CC(N)=O)C(=O)N[C@@H](CCCCNC(=O)[C@@H](N)CCCCNC(=O)CC[C@H](NC(=O)CC[C@H](NC(=O)CC[C@H](NC(=O)CC[C@H](NC(=O)CC[C@H](NC(=O)CC[C@H](NC(=O)CCCCCCCCCCCCCCCCC(=O)O)C(=O)O)C(=O)O)C(=O)O)C(=O)O)C(=O)O)C(=O)O)C(=O)NC(C)(C)C(=O)N[C@H](C(=O)N[C@@H](CCCNC(=N)N)C(=O)N[C@@H](CCC(N)=O)C(=O)N[C@@H](CCCNC(=N)N)C(=O)N[C@@H](Cc1ccc(O)cc1)C(N)=O)[C@@H](C)O [Compound 84, Y-Aib-E-G-T-F-T-S-D-Y-S-I-Aib-L-E-K-Q-A-Y-Aib-A-F-V-R-H-L-I-N-K(1,3)-Aib-T-R-Q-R-Y-NH2.C18DA-gGlu-gGlu-gGlu-gGlu-gGlu-gGlu-eLys(1,2)]
solubility at 2 h [1]: 4100 µg/mL
EC50 (hGIPR; [2]): 5 nM

CC[C@H](C)[C@H](NC(=O)[C@H](CC(C)C)NC(=O)[C@H](Cc1c[nH]cn1)NC(=O)[C@H](CCCNC(=N)N)NC(=O)[C@@H](NC(=O)[C@H](Cc1ccccc1)NC(=O)[C@H](C)NC(=O)C(C)(C)NC(=O)[C@H](CCC(N)=O)NC(=O)[C@H](C)NC(=O)[C@H](CCC(N)=O)NC(=O)[C@H](CCC(=O)O)NC(=O)[C@H](CC(=O)O)NC(=O)[C@H](CC(C)C)NC(=O)C(C)(C)NC(=O)[C@@H](NC(=O)[C@H](CO)NC(=O)[C@H](Cc1ccc(O)cc1)NC(=O)[C@H](CC(=O)O)NC(=O)[C@H](CO)NC(=O)[C@@H](NC(=O)[C@H](Cc1ccccc1)NC(=O)[C@@H](NC(=O)CNC(=O)[C@H](CCC(=O)O)NC(=O)C(C)(C)NC(=O)[C@@H](N)Cc1ccc(O)cc1)[C@@H](C)O)[C@@H](C)O)[C@@H](C)CC)C(C)C)C(=O)N[C@@H](CC(N)=O)C(=O)N[C@@H](CCCCNC(=O)[C@@H](N)CCCCNC(=O)[C@@H](N)CCCCNC(=O)CC[C@H](NC(=O)CC[C@H](NC(=O)CC[C@H](NC(=O)CC[C@H](NC(=O)CC[C@H](NC(=O)CCCCCCCCCCCCCCCCCCC(=O)O)C(=O)O)C(=O)O)C(=O)O)C(=O)O)C(=O)O)C(=O)NC(C)(C)C(=O)N[C@H](C(=O)N[C@@H](CCCNC(=N)N)C(=O)N[C@@H](CCC(N)=O)C(=O)N[C@@H](CCCNC(=N)N)C(=O)N[C@@H](Cc1ccc(O)cc1)C(N)=O)[C@@H](C)O [Compound 155, Y-Aib-E-G-T-F-T-S-D-Y-S-I-Aib-L-D-E-Q-A-Q-Aib-A-F-V-R-H-L-I-N-K(1,3)-Aib-T-R-Q-R-Y-NH2.C20DA-gGlu-gGlu-gGlu-gGlu-gGlu-eLys-eLys(1,2)]
solubility at 2 h [1]: 8900 µg/mL
EC50 (hGIPR; [2]): 0.7 nM

CC[C@H](C)[C@H](NC(=O)[C@H](CC(C)C)NC(=O)[C@H](Cc1c[nH]cn1)NC(=O)[C@H](CCCNC(=N)N)NC(=O)[C@@H](NC(=O)[C@H](Cc1ccccc1)NC(=O)[C@H](C)NC(=O)C(C)(C)NC(=O)[C@H](CCC(N)=O)NC(=O)[C@H](C)NC(=O)[C@H](CCC(N)=O)NC(=O)[C@H](CCCCN)NC(=O)[C@H](CCC(=O)O)NC(=O)[C@H](CC(C)C)NC(=O)C(C)(C)NC(=O)[C@@H](NC(=O)[C@H](CO)NC(=O)[C@H](Cc1ccc(O)cc1)NC(=O)[C@H](CC(=O)O)NC(=O)[C@H](CO)NC(=O)[C@@H](NC(=O)[C@H](Cc1ccccc1)NC(=O)[C@@H](NC(=O)CNC(=O)[C@H](CCC(=O)O)NC(=O)C(C)(C)NC(=O)[C@@H](N)Cc1ccc(O)cc1)[C@@H](C)O)[C@@H](C)O)[C@@H](C)CC)C(C)C)C(=O)N[C@@H](CC(N)=O)C(=O)N[C@@H](CCCCNC(=O)CCCCCNC(=O)CC[C@H](NC(=O)CCCCCNC(=O)CC[C@H](NC(=O)CC[C@H](NC(=O)CC[C@H](NC(=O)CC[C@H](NC(=O)CCCCCCCCCCCCCCCCCCC(=O)O)C(=O)O)C(=O)O)C(=O)O)C(=O)O)C(=O)O)C(=O)NC(C)(C)C(=O)N[C@H](C(=O)N[C@@H](CCCNC(=N)N)C(=O)N[C@@H](CCC(N)=O)C(=O)N[C@@H](CCCNC(=N)N)C(=O)N[C@@H](Cc1ccc(O)cc1)C(N)=O)[C@@H](C)O [Compound 175, Y-Aib-E-G-T-F-T-S-D-Y-S-I-Aib-L-E-K-Q-A-Q-Aib-A-F-V-R-H-L-I-N-K(1,3)-Aib-T-R-Q-R-Y-NH2.C20DA-gGlu-gGlu-gGlu-gGlu-AHX-gGlu-AHX(1,2)]
solubility at 2 h [1]: 8400 µg/mL
EC50 (hGIPR; [2]): 0.2 nM
EC50 (hGIPR; 100% human plasma, read-out: hGIPR 100% hP): 5.6 nM
